Measurements from article PMC3672105, “Identification and Enhancement of HLA-A2.1-Restricted CTL Epitopes in a New Human Cancer Antigen-POTE” (PLoS ONE, 2013).

What was measured:
HLA-A2 molecule = target: T1, HLA-A2 molecule (Homo sapiens, UniProt P04439, D140Y/D185E/D98H/E176V/E277Q/G131W/G231S/I119V/I121R/I166T/I218V/L300P/L318F/N151K/N90K/P208A/P217A/Q86G/Q94H/R138H/R169H/T345S); experiment: T2 binding assay; conditions: for HLA-A2 binder class in words: T2 binding assay; for FI0.5 (peptide concentration that increases HLA-A2.1 expression by 50% over no peptide control): BB7.2 staining, flow cytometry, triplicate; for FI0.5 lower (higher affinity) than that of the POTE 252 peptide: ratio to wild type POTE 252
T1 construct: endogenous in cells; host or cells: T2 cell line (TAP1/TAP2-deficient)
Procedure: Peptide binding capacity to the HLA-A2 molecule was measured by using the T2 cell line according to a protocol described previously, [22]. T2 cells (3 × 10^5 cells/well) were incubated overnight in 96-well plates with culture medium (1∶1 mixture of RPMI 1640/Eagle-Hank’s amino acid containing 2.5% fetal bovine serum, 100 U/ml penicillin, and 100 µg/ml streptomycin) with 10 µg/ml β2-microglobulin (Sigma) and different titrated concentrations of peptides (starting from 100 µM with 2-fold serial dilution) as shown in the figures to determine the concentration giving a 50% increase in binding (see below). Cells were washed once with cold HBSS containing 0.1% BSA and incubated for 30 min at 4°C with anti-HLA-A2.1 monoclonal antibody (clone BB7.2) (1∶40 dilution from hybridoma supernatant). After washing, cells were stained with FITC-labeled goat anti-mouse immunoglobulin (BD, San Jose, CA), and the level of HLA expression was measured by flow cytometry. HLA-A2 expression was quantified as fluorescence index (FI) according to the following formula: FI = (geometric mean fluorescence intensity with peptide - geometric mean fluorescence intensity without peptide)/geometric mean fluorescence intensity without peptide. Background fluorescence without BB7.2 was subtracted for each individual value. To compare the different peptides, FI0.5, the peptide concentration that increases HLA-A2.1 expression by 50% over no peptide control background, was calculated from the titration curve for each peptide. It should be noted that the FI0.5 provides a relative measure of peptide affinity or potency among peptides compared side by side, but cannot be taken as a thermodynamic affinity.

AAD transgenic mice = experiment: Ex vivo interferon-γ ELISPOT assay after peptide immunization; format: in vivo, mouse; conditions: for IFN-γ response (ELISPOT) after stimulation with the immunizing peptide: AAD mice immunized s.c. with 50 nmol peptide, boosted at 2 weeks, pooled splenocytes of 3 mice, targets pulsed with 1.0 µM (1000 nM) peptide; for cross-reactive IFN-γ response (ELISPOT) to wild type peptide: AAD mice immunized with enhanced peptide, stimulation with wild type peptide
Procedure: (§1) Cytokines were purchased from Peprotech (Rocky Hill, NJ). […] For all experiments, groups of three mice were used.
The numbers of IFN-γ secreting cells were determined by an ELISPOT kit (Mouse IFN-gamma ELISpot SixPak; R&D, Minneapolis, […]) or by a set of anti-mouse IFN-γ coating (AN18) and detecting (R4–6A2) monoclonal antibodies (Mabtech) according to the manufacturer’s instructions. Two weeks after the last immunization, spleen cells were plated on antibody-coated plates at 200,000, 100,000 and 50.000 cells/well and stimulated with 200,000 peptide-pulsed naïve spleen cells/well with indicated concentration of peptides for 2 hours. After incubation overnight at 37°C, the plates were washed and detecting antibody was added. An ELISPOT blue color module (R&D) was used for color development. The spots were read by an ELISPOT reader (AID). All samples were analyzed in triplicate.

[1] = tested on: C1R.AAD cells pulsed with peptides; experiment: 4-h 51Cr release CTL assay on peptide-pulsed targets after one week in vitro stimulation; format: cell-based, human; conditions: CTLs from immunized AAD mice after one week in vitro stimulation with cognate peptide (1.0 µM), targets pulsed with 1.0 µM peptide
Source text: as §1

HHD-2 mice = experiment: HLA-A2/peptide tetramer staining and TCR Vβ repertoire of CD8+ T cells; format: in vivo, mouse; conditions: HHD-2 mice immunized with the peptide; for tetramer-positive CD8+ T cells: HLA-A2/peptide tetramer staining, Figure 2C
Source text: as §1
Tetrameric MHC class I/peptide complexes obtained from the NIH Tetramer Facility were synthesized as described previously, [25]. Briefly, purified single-chain HLA-A2 molecules were synthesized by a prokaryotic expression system (pET; R&D Systems, Minneapolis, MN). The heavy chain was modified containing the Bir-A enzymatic biotinylation site. Single-chain heavy chain-β2-microglobulin and peptide were refolded by dilution into a redoxshuffling buffer system. The refolded product was biotinylated by Bir-A in the presence of […] (Avidity, Denver, CO). Streptavidin-Phycoerythrin conjugate (Jackson ImmunoResearch, West Grove, PA) was added in a 1∶4 molar ratio. Per-CP labeled anti-mouse CD8 antibody (BD Pharmingen) and TCR Vβ screening panel (BD Pharmingen) were used to detect the TCR repertoire of the CTLs.

[2] = predicted wild type peptides, Figure 1A, T2 cells overnight with peptide (from 100 µM, 2-fold dilutions) and 10 µg/ml β2-microglobulin
[3] = wild type and substituted peptides, Figure 1B-D, T2 cells overnight with peptide and 10 µg/ml β2-microglobulin

| FI0.5 (peptide concentration that increases HLA-A2.1 expression by 50% over no peptide control) (HLA-A2 molecule; [3]) [µM] | Sequence | IFN-γ response (ELISPOT) after stimulation with the immunizing peptide (AAD transgenic mice) | CTL lysis of peptide-pulsed target cells [1] | other results |
| --- | --- | --- | --- | --- |
|  | GLTPLLLGV [POTE 272–280] | induced significant IFN-γ responses | lysed target cells pulsed with POTE 272 | HLA-A2 binder class in words (HLA-A2 molecule; Figure 1A): strongest binding affinity; FI0.5 (peptide concentration that increases HLA-A2.1 expression by 50% over no peptide control) (HLA-A2 molecule; [2]): 0.9 µM |
|  | KILEEIESV [POTE 553–561] | did not induce any significant IFN-γ responses | not any significant detectable target cell lysis | HLA-A2 binder class in words (HLA-A2 molecule; Figure 1A): intermediate binders; FI0.5 (peptide concentration that increases HLA-A2.1 expression by 50% over no peptide control) (HLA-A2 molecule; [2]): 5.6 µM |
| 0.2 | KILEEIASV [POTE-553-7A] |  |  |  |
| 0.024 | YILEEIESV [POTE 553-1Y] | induced some level of IFN-γ responses only after stimulation with the same peptide | lysed target cells pulsed with not only POTE 553-1Y, but also POTE 553 and POTE 553-2L peptides | cross-reactive IFN-γ response (ELISPOT) to wild type peptide (AAD transgenic mice): no cross-reactive response to wild type peptide was detected |
| 0.1 | KLLEEIESV [POTE 553-2L] | induced some level of IFN-γ responses only after stimulation with the same peptide | did not lyse target cells pulsed with POTE 553-2L | cross-reactive IFN-γ response (ELISPOT) to wild type peptide (AAD transgenic mice): no cross-reactive response to wild type peptide was detected |
| 0.09 | LLFEQNVDV [POTE 323-3F] | induced significant IFN-γ spots | lysed target cells pulsed with the POTE 323-3F, as well as wild type POTE 323 | FI0.5 better than the wild type peptide (HLA-A2 molecule; ratio to wild type POTE 323): approximately 3 fold; cross-reactive IFN-γ response (ELISPOT) to wild type peptide (AAD transgenic mice): some degree of IFN-γ response was also detected |
| 0.8 | KLMAKALLV [POTE 252-9V] | induced a significant number of IFN-γ spots | lysed target cells pulsed with the wild type POTE 252 as well as POTE 252-9V | FI0.5 lower (higher affinity) than that of the POTE 252 peptide (HLA-A2 molecule): ~2 fold; cross-reactive IFN-γ response (ELISPOT) to wild type peptide (AAD transgenic mice): cross-reactivity to both POTE 252 and POTE 252-9V; tetramer-positive CD8+ T cells (HHD-2 mice): 6.8%; CD8+tetramer+ T cells positive for Vβ10 (HHD-2 mice; TCR Vβ screening panel, Figure 2D): about 80% |
| 0.9 | YLMAKALLL [POTE 252-1Y] | no significant IFN-γ responses were detected |  | FI0.5 lower (higher affinity) than that of the POTE 252 peptide (HLA-A2 molecule): ~2 fold |
| 4 | KLMAKAALL [POTE 252-7A] |  |  |  |
| 0.4 | LLAEQNVDV [POTE 323-3A] |  |  |  |
|  | KLMAKALLL [POTE 252–260] | induced a significant number of IFN-γ spots | lysed target cells pulsed with the wild type POTE 252 as well as POTE 252-9V | HLA-A2 binder class in words (HLA-A2 molecule; Figure 1A): intermediate binders; FI0.5 (peptide concentration that increases HLA-A2.1 expression by 50% over no peptide control) (HLA-A2 molecule; [2]): 1.6 µM; tetramer-positive CD8+ T cells (HHD-2 mice): 9.3% |
| 2.78 | LLLEQNADV [POTE 323-7A] |  |  |  |
| 0.25 | YLLEQNVDV [POTE 323-1Y] |  |  |  |
|  | LLLEQNVDV [POTE 323–331] | only marginal IFN-γ responses | failed to lyse target cells pulsed with POTE 323 | HLA-A2 binder class in words (HLA-A2 molecule; Figure 1A): strongest binding affinity; FI0.5 (peptide concentration that increases HLA-A2.1 expression by 50% over no peptide control) (HLA-A2 molecule; [2]): 0.8 µM; IFN-γ response over background level (ELISPOT) (AAD transgenic mice; AAD mice immunized with 50 nmol peptide, targets pulsed with 1000 nM peptide): less than 2 fold |
| 16.9 | KLAAKALLL [POTE 252-3A] |  |  |  |
